Results taken from patent publication US11723897B2, “Fatty acids as anti-inflammatory agents” (University of Pittsburgh—Of the Commonwealth System of …, priority 2009, dated 2023).
Entries after “also recorded” stand apart in the source; their conditions may differ. Like-named read-outs stand apart in the source and are kept apart here.

How the values were obtained:
[1] = tested on: RAW264.7 cells; experiment: Fatty acid supplementation study in activated RAW264.7 cells; type: cell-based, murine; details: 32 μM fatty acid for 3 days, then Kdo2 + IFNγ, 20 h
Experimental: (a) A characteristic BME electrophile adduct fragmentation pattern. showing the major neutral loss of 78 amu (corresponding to the loss of BME) is represented by the enhanced product ion analysis of EFAD-2. (b) RAW264.7 cells were grown for 3 days in DMEM and 10% FBS supplemented with 32 μM of the indicated fatty acid. On the third day cells were activated with Kdo2 (0.5 μg/ml)) and IFNγ (200 U/ml) and EFAD-2 levels were quantified 20 h post activation. (c) Diagram of NaBH4 reduction of oxo-group to an alcohol group. (d) MRM scans monitoring for the mlz transition of 343.2/299.2 (oxo-DPA losing CO2) in RAW264.7 cell lysates purified for EFAD-2, non-treated or treated with NaBH4 (upper and lower panel); MRM scans monitoring for the mlz transition of [345.2/327.2 (hydroxy-DPA/neutral loss of H20) in RAW264.7 cell lysates purified for EFAD-2 and treated with NaBH4. (e) MS/MS fragmentation of EFAD-2 purified from activated RAW 264.7 cells and reduced with NaBH4.
FIG. 16a-16b illustrates that EFAD-1 and -3 are derived from the n-3 series of fatty acids. RAW264.7 cells were grown for 3 days in DMEM and 10% FBS supplemented with 32 μM of the indicated fatty acid. On the third day cells were activated with Kdo2 Lipid A (0.5 μg/ml) and IFNγ (200 U/ml) and EFAD-1 and -3 levels were quantified 20 h post activation.
Similarly, the EFAD of DHA (EFAD-1) and the EFAD of DTA (EFAD-3), were identified as mono-oxygenated derivatives of a 22-carbon fatty acid with a total of six and four double bonds, respectively. To elucidate the precursors in vivo, fatty acid supplementation studies were performed. […] Moreover, as illustrated in FIG. 4 EFAD-2 formation is COX-2 dependent.

[2] = tested on: EFAD formation in RAW264.7 cells; experiment: Inhibitor study: EFAD formation in RAW264.7 cells activated with Kdo2 and IFNγ; type: cell-based, murine; details: for Effect of inhibitor on EFAD-1 formation / Effect of inhibitor on EFAD-2 formation / Effect of inhibitor on EFAD-3 formation / Effect of inhibitor on EFAD-4 formation / Effect of inhibitor on EFAD-5 formation / Effect of inhibitor on EFAD-6 formation: RAW264.7 + Kdo2 + IFNγ, ↓ decrease, ↑ increase, NE (not defined in patent)
[3] = target: rabbit GAPDH (Oryctolagus cuniculus, UniProt P46406); experiment: In vitro reaction of GAPDH with EFAD (mass spectrometry); type: binding; details: Cys244, Cys149, His163, His328
Sequence of rabbit GAPDH (P46406 whole entry): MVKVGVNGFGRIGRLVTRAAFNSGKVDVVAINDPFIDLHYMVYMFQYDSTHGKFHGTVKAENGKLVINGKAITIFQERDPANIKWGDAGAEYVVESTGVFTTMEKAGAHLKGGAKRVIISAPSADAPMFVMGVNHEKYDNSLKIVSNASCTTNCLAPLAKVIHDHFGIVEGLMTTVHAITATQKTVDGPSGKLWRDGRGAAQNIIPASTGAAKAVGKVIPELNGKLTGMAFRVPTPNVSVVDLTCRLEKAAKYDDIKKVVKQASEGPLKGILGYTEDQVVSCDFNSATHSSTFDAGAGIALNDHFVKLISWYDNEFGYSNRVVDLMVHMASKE
Experimental: FIG. 21a-21h illustrates the mass spectrometric analysis of an in vitro reaction of GAPDH with EFAD-2. Four residues were detected and confined as being targets for EfAD-2 in treated rabbit GAPDH. The peptides were alkylated as Cys244 (a), His163 (b), Cys149 (c) and His328 (d). Upper panels show EFAD-2 modified peptides and lower panels show spectra from corresponding native peptide.
To more specifically test the binding of EFADs to nucleophilic residues in proteins, we tested whether GAPDH was alkylated by EFADs. This enzyme is a well-characterized target for electrophiles and becomes easily inactivated by nitrosylation, oxidation or nucleophilic addition.

[4] = tested on: RAW264.7 cells; experiment: Cytokine levels (IL-6, MCP-1, IL-10) in Kdo2+IFNγ-activated RAW264.7 cells; type: cell-based, murine
[5] = tested on: Nrf2-dependent anti-oxidant response pathway; experiment: Nrf2 nuclear accumulation and HO-1/Nqo1 expression (western blot) in RAW264.7 cells; type: cell-based, murine; details: for Nrf2 nuclear accumulation: nuclear extracts, 1 h after treatment; for Expression of HO-1 and Nqo1: western blot, 18 h after treatment
[6] = tested on: inducible nitric oxide synthase (iNOS); experiment: Nitrite, iNOS and Cox-2 levels in Kdo2+IFNγ-activated RAW264.7 cells; type: cell-based, murine; details: for iNOS induction and accumulation of nitrite in the cell media: RAW264.7
Experimental: FIG. 11a-11e illustrates modulation of anti-oxidant and inflammatory responses by 17-oxoDHA and 17-oxoDPA. RAW264.7 cells were treated with increasing concentration of 17-oxoDHA and 17-oxoDPA. (a) Cells were harvested 1 h after treatment and Nrf2 levels were quantified in nuclear extracts. (b) Cells were harvested 18 h after treatment and HO-1 and Nqo1 (upper band) levels were measured by western blot. (c, d) RAW264.7 cells were treated with increasing concentration of 17-oxoDHA and 17-oxoDPA for 6 h and Kdo2+IFNγ were added. Samples were collected at 12 h. IL-6, MCP-1 and IL-10 levels were measured in the cell media by Quantikine ELISA Kit (R&D Systems) and normalized by the total protein content (c); Nitrite levels were measured in the cell media and normalized by the total protein content and iNOS and Cox-2 levels were measured in total cell lysates (d); (e) PPARγ beta-lactamase reporter assays were performed for Rosiglitazone, 17-OxoDPA, 17-OxoDHA, 15d-PGJ2, 17-hydroxyDHA, DPA, and DHA with concentrations ranging from 0.5-10,000 nM.
For activation experiments RAW 264.7 cells were seeded, incubated overnight, and treated at approximately 80% confluence with the indicated compounds 47. Non-activated controls were treated with vehicle alone. During activation, cells were maintained in an activation medium (SMEM) of Minimum Essential Medium Eagle (Cellgro, 17-305)+2% FBS supplemented with L-glutamine (584 mg/L), Na-pyruvate (110 mg/L) and Hepes (3.57 g/L, pH 7.4). For inhibition studies, inhibitors were added to the medium at the time of activation and MTT assays were used to confirm cell viability. Cells were harvested 20 h post activation (unless otherwise indicated) in 50 mM phosphate buffer (pH 7.4) and snap frozen in liquid N2. THP-1 cells were differentiated with PMA (86 nM) for 16 h, activated with IFNγ (200 U/ml) and Kdo2 lipid A (0.5 μg/ml) in RPMI+2% FBS and harvested 40 h after differentiation. For treatment with EFADs alone, 17-oxoDHA and 17-oxoDPA were added to cell culture media at the indicated concentrations and for the indicated time period. For treatment with EFADs coupled with pro-inflammatory stimulation, addition of 17-oxoDHA and 17-oxoDPA was followed by addition of Kdo2 and IFNγ at 6 h.
Protein concentrations of samples were measured by BCA assay (Pierce). The following primary antibodies were used: Nrf2 (Santa Cruz, sc-722), HO-1 (Assay Design, SPA-896), Nqo1 (Abcam, ab34173), Cox-2 (Santa Cruz, sc-1745), iNOS (BD Transduction Lab, 610332), Lamin B1 (Abcam, ab16048). Actin (detected by Sigma A2066) was used as loading control. […]
Total nitrite and nitrate concentration was measured in cell culture media by Griess reaction using the Nitrate/Nitrite Colorimetric Assay Kit (Cayman Chemical).

[7] = Mus musculus, RAW264.7, genistein 25 μM, MAFP 25 μM, ibuprofen 100 μM, 20 h, read-out: Inhibition of EFAD production
[8] = MK886 500 nM, ETYA 25 μM, OKA 50 nM, indomethacin 25 μM, diclofenac 1 μM, NS-398 4 μM, 20 h

Row | SMILES | Effect of inhibitor on EFAD-1 formation ([2]; 20 h) | Effect of inhibitor on EFAD-2 formation ([2]; 20 h) | Effect of inhibitor on EFAD-3 formation ([2]; 20 h) | Effect of inhibitor on EFAD-4 formation ([2]; 20 h) | Effect of inhibitor on EFAD-5 formation ([2]; 20 h) | Effect of inhibitor on EFAD-6 formation ([2]; 20 h) | Effect on EFAD formation (in words) [2, 8] | other results
1 | CC/C=C/C/C=C/C/C=C/C/C=C\C/C=C/C/C=C/CCC(=O)O [DHA, (4E,7E,10Z,13E,16E,19E)-docosa-4,7,10,13,16,19-hexanoic acid] | – | – | – | – | – | – | – | EFAD-1 formation after fatty acid supplementation [1]: increased; EFAD-2 formation after fatty acid supplementation [1]: did not increase
2 | C=C1[C@@H](O)[C@@H]2O[C@]3(CC[C@H](/C=C/[C@@H](C)[C@@H]4CC(C)=C[C@@]5(O[C@H](C[C@@](C)(O)C(=O)O)CC[C@H]5O)O4)O3)CC[C@H]2O[C@@H]1[C@@H](O)C[C@H](C)[C@H]1O[C@@]2(CCCCO2)CC[C@H]1C [OKA, okadaic acid] | – | – | – | – | – | – | – | Effect on EFAD formation (in words) [2]: slight increase
3 | O=c1c(-c2ccc(O)cc2)coc2cc(O)cc(O)c12 [genistein] | ↓ | ↓ | ↓ | ↓ | ↓ | ↓ | – | inhibition at 25 µM [2, 7]: > 50%
4 | CC(C)c1ccc2c(c1)c(SC(C)(C)C)c(CC(C)(C)C(=O)O)n2Cc1ccc(Cl)cc1 [MK886] | – | – | – | – | – | – | no significant effect | –
5 | CC/C=C\C/C=C\C/C=C\CCCCCCCC(=O)O [α-linolenic acid] | – | – | – | – | – | – | – | EFAD-2 formation after fatty acid supplementation [1]: significantly increased
6 | CS(=O)(=O)Nc1ccc([N+](=O)[O-])cc1OC1CCCCC1 [NS-398] | – | – | – | – | – | – | abolished | –
7 | CC(C)Cc1ccc(C(C)C(=O)O)cc1 (racemic) [Ibuprofen] | ↓ | ↓ | ↓ | ↓ | – | ↓ | – | inhibition at 100 µM [2, 7]: > 80%; Effect of inhibitor on EFAD-1 formation ([2]; 20 h, listed as ibuprofen): no significant effect
8 | COc1ccc2c(c1)c(CC(=O)O)c(C)n2C(=O)c1ccc(Cl)cc1 [Indomethacin] | ↓ | ↓ | ↓ | ↓ | ↓ | ↓ | completely abolish | –
9 | O=C(O)Cc1ccccc1Nc1c(Cl)cccc1Cl [Diclofenac] | ↓ | ↓ | ↓ | ↓ | ↓ | ↓ | completely abolish | –
10 | CC/C=C\CC(=O)C=C/C=C\C/C=C\C/C=C\CCCCCC(=O)O [17-oxoDPA, 17-oxo-(7Z,10Z,13Z,15A,19Z)-docosa-7,10,13,15,19-pentanoic acid] | – | – | – | – | – | – | – | Adduct formation with GAPDH residues [3]: covalently bind Cys and His residues; IFNγ and LPS-induced cytokine production [4]: inhibited IFNγ and LPS-induced cytokine production in a dose-dependent manner; Nrf2 nuclear accumulation [5]: promoted dose-dependent; also recorded: promoting nuclear accumulation of Nrf2; Expression of HO-1 and Nqo1 [5]: promoted dose-dependent; also recorded: promoting; Reduction of nitrite production ([6]; 25 μM): ~70%; iNOS induction and accumulation of nitrite in the cell media [6]: dose-dependent inhibition
11 | CCCCCC#CCC#CCC#CCC#CCCCC(=O)O [ETYA, Eicosatetraynoic acid] | ↓ | ↓ | ↓ | ↓ | ↓ | ↓ | strongly inhibit | –
12 | CC/C=C\C/C=C\C/C=C\C/C=C\C/C=C\CCCC(=O)O [EPA, (5Z,8Z,11Z,14Z,17Z)-eicosa-5,8,11,14,17-pentanoic acid] | – | – | – | – | – | – | – | EFAD-2 formation after fatty acid supplementation [1]: significantly increased
13 | CC/C=C\CC(=O)C=C/C=C\C/C=C\C/C=C\C/C=C\CCC(=O)O [17-oxoDHA, 17-oxo-(4Z,7Z,10Z,13Z,15A,19Z)-docosa-4,7,10,13,15,19-hexanoic acid] | – | – | – | – | – | – | – | Adduct formation with GAPDH residues [3]: covalently bind Cys and His residues; IFNγ and LPS-induced cytokine production [4]: inhibited IFNγ and LPS-induced cytokine production in a dose-dependent manner; Nrf2 nuclear accumulation [5]: promoted dose-dependent; also recorded: promoting nuclear accumulation of Nrf2; Expression of HO-1 and Nqo1 [5]: promoted dose-dependent; also recorded: promoting; Reduction of nitrite production ([6]; 20 μM): ~70%; iNOS induction and accumulation of nitrite in the cell media [6]: dose-dependent inhibition
